Key:
Type in all cases: physicochemical
[1] = Stability in 0.1% solutions or suspensions, 1 week 80° C. (pH stability study); design: key to CL color: A: No change of color; B: Slight discoloration; C: Medium discoloration; D: Strong discoloration; —: Test not performed; key to Suspension or clear solution after stress test: ↓: Suspension; *: Clear solution after stress test; settings: for CL color / DP[%] degradation products (HPLC area-%): 0.1% solution or suspension; for CL color / DP[%] degradation products (HPLC area-%) / Suspension or clear solution after stress test: 1 week 80° C.; for Suspension or clear solution after stress test: 0.1%
[2] = Solid state bulk stability, 1 week 80° C. tight container and 80° C./75% RH; settings: for Bulk (XRPD) solid form after stress / DP[%] degradation products, Bulk (HPLC): Solid state
[3] = Stability 1% in excipient mixtures, 2 weeks 50° C.
Text: (§1) Both solid forms of the Compound of Formula (I) are also stable in mixtures with excipients.

[4] = Xenon light stress (1200 kLuxh); design: key to CL color: A: No change of color; B: Slight discoloration; C: Medium discoloration; D: Strong discoloration; —: Test not performed; settings: for Bulk (XRPD) solid form after stress / CL color / DP[%] degradation products, Bulk (HPLC): Xenon light (1200 kLuxh); for CL color: bulk
Text: as §1

[5] = Solid form transformation / decomposition upon heating
Protocol: DSC thermograms were recorded with a TA Discovery DSC instrument using heat flux compensation (TA Instruments, USA). The TA Discovery instrument was calibrated for temperature and enthalpy according to the manufacturer's instructions using certified reference substances like indium. About 2 mg of sample material was sealed in a standard pin-holed aluminum pan and heated in the DSC from 0° C. to 300° C., at a heating rate of 10° C./min. Dry nitrogen gas, at a flow rate of 50 ml/min was used to purge the DSC equipment during the measurement.
Thermogravimetric analysis was performed using a TA Discovery TGA instrument (TA Instruments, USA). About 2-10 mg of sample material was sealed in a standard aluminum pan with pierced lid and heated in the TGA from 30° C. to 250° C., at a heating rate of 10° C./min. Dry N2 gas, at a flow rate of 20 ml/min was used to purge the TGA equipment during the measurement.

[6] = Slurry experiments of Form A and Hydrate HA in media with different water activities; settings: 40° C.
Protocol: Form A is stable at water activities of aw=0.7 and below, whereas the hydrate is stable at aw=0.9 and above. At 40° C. Form A is stable at water activities of aw=0.8 and below, whereas the hydrate is stable at aw>0.95.

[7] = Hygroscopicity / water uptake
Protocol: The maximum water uptake of Form A is 0.6% at 95% relative humidity at 25° C. Form A is stable at water activity of aw=0.7 at 25° C.
Form A is an anhydrous crystalline form with a melting onset of about 208° C. and melting enthalpy of about 111-119 J/g.

[8] = Stability in 0.1% solutions or suspensions, 1 week 80° C. (pH stability study); design: key to CL color: A: No change of color; B: Slight discoloration; C: Medium discoloration; D: Strong discoloration; —: Test not performed; key to Suspension or clear solution after stress test: ↓: Suspension; *: Clear solution after stress test; settings: for Suspension or clear solution after stress test: 0.1%
Protocol: In a pH stability study, 0.1% suspension/solutions of the compound of Formula (I) in buffer solutions of various pHs were exposed to 80° C. for one week. The compound of Formula (I) degraded the most in pH 1 buffer, about 5%, whereas at high pH degradation was less than 1% after 1 week at 80° C.

[9] = Competitive slurry experiments and equilibration studies in solvents; settings: for Outcome of competitive slurry experiment with Form A: 25° C.
[10] = 80° C. and 80° C. and 75% RH for one week
[11] = 1 week 80° C., tight container, listed as Modification A (NX-27)
[12] = listed as Modification A (NX-27)

## O=C1CC2(CCN(C(=O)NCc3ccc(F)cc3)CC2)Nc2ccc(F)cc21 [Form A, 6′-fluoro-N-(4-fluorobenzyl)-4′-oxo-3′,4′-dihydro-1′H-spiro[piperidine-4,2′-quinoline]-1-carboxamide]
[1]; Acetonitrile
  CL color: A
  DP[%] degradation products (HPLC area-%): 1.2%
  Suspension or clear solution after stress test: *
[1]; Dioxane
  CL color: A
  DP[%] degradation products (HPLC area-%): 56.8%
  Suspension or clear solution after stress test: *
[1]; Ethanol
  CL color: A
  DP[%] degradation products (HPLC area-%): 16.6%
  Suspension or clear solution after stress test: *
[1]; MEK
  CL color: A
  DP[%] degradation products (HPLC area-%): 7.6%
  Suspension or clear solution after stress test: *
[1]; NMP
  CL color: A
  Suspension or clear solution after stress test: *
[1]; Water
  CL color: A
  DP[%] degradation products (HPLC area-%): 1.2%
[1]; pH 1.0, 0.1N HCl
  CL color: A
  DP[%] degradation products (HPLC area-%): 5.6%
[1]; pH 3.0, citrate buffer
  CL color: A
  DP[%] degradation products (HPLC area-%): 1.5%
[1]; pH 4.7, acetate buffer
  DP[%] degradation products (HPLC area-%): 1.4%
  Suspension or clear solution after stress test: ↓
[1]; pH 6.8, phosphate buffer
  CL color: A
  DP[%] degradation products (HPLC area-%): 1.2%
[1]; pH 9.0, borate buffer
  CL color: A
  DP[%] degradation products (HPLC area-%): 1.1%
[2]; [10]
  Chemical stability in the bulk: chemically stable
[2]; [11]
  Bulk (XRPD) solid form after stress: No change
  DP[%] degradation products, Bulk (HPLC): 0.6%
[2]; 1 week 80° C./75% RH
  DP[%] degradation products, Bulk (HPLC): 0.7%
[2]; 1 week 80° C./75% RH, listed as Modification A (NX-27)
  Bulk (XRPD) solid form after stress: No change
[2]; bulk
  Physical stability in bulk: physically stable
[3]; 1% in mixture 1 (Dry Blend), 2 weeks 50° C., tight container, listed as Modification A (NX-27)
  DP[%] degradation products: 0.4%
[3]; 1% in mixture 1 (Dry Blend), 2 weeks 50° C./75% RH, listed as Modification A (NX-27)
  DP[%] degradation products: 0.4%
[3]; 1% in mixture 2 (Wet granulation), 2 weeks 50° C., tight container, listed as Modification A (NX-27)
  DP[%] degradation products: 0.4%
[3]; 1% in mixture 2 (Wet granulation), 2 weeks 50° C./75% RH, listed as Modification A (NX-27)
  DP[%] degradation products: 0.4%
[3]; 1% in mixture 3 (Roller compaction), 2 weeks 50° C., tight container, listed as Modification A (NX-27)
  DP[%] degradation products: 0.4%
[3]; 1% in mixture 3 (Roller compaction), 2 weeks 50° C./75% RH, listed as Modification A (NX-27)
  DP[%] degradation products: 0.4%
[4]
  Bulk (XRPD) solid form after stress: No change
[4]; [12]
  CL color: B
  DP[%] degradation products, Bulk (HPLC): 1.2%
[4]; listed as Modification A
  Increase in degradation products upon light stress: 0.6%
[5]; TGA
  Thermal decomposition temperature: 240 °C
[6]
  Water activity (aw) at which the form is stable: ≤ 0.8
[7]
  Hygroscopicity: slightly hygroscopic
[7]; 95% relative humidity at 25° C.
  Maximum water uptake: 0.6%
[8]; 0.1% solution or suspension, NMP
  DP[%] degradation products (HPLC area-%): 14.3%
[8]; 0.1% solution or suspension, pH 4.7, acetate buffer
  CL color: A
[8]; Water
  Suspension or clear solution after stress test: ↓
[8]; pH 1.0, 0.1N HCl
  Suspension or clear solution after stress test: ↓
[8]; pH 3.0, citrate buffer
  Suspension or clear solution after stress test: ↓
[8]; pH 6.8, phosphate buffer
  Suspension or clear solution after stress test: ↓
[8]; pH 9.0, borate buffer
  Suspension or clear solution after stress test: ↓
[9]; various solvents
  Crystal structure after slurrying (equilibration) for prolonged time: preserves its crystal structure

## O=C1CC2(CCN(C(=O)NCc3ccc(F)cc3)CC2)Nc2ccc(F)cc21 [Form C, 6′-fluoro-N-(4-fluorobenzyl)-4′-oxo-3′,4′-dihydro-1′H-spiro[piperidine-4,2′-quinoline]-1-carboxamide]
[5]
  Temperature of transformation into Form A upon heating: about 150 °C
[9]
  Outcome of competitive slurry experiment with Form A: conversion of Form C into Form A
[9]; based on competitive slurry experiments
  Transition temperature Form C / Form A (enantiotropic relationship): below 25 °C

## O=C1CC2(CCN(C(=O)NCc3ccc(F)cc3)CC2)Nc2ccc(F)cc21 [Form D, 6′-fluoro-N-(4-fluorobenzyl)-4′-oxo-3′,4′-dihydro-1′H-spiro[piperidine-4,2′-quinoline]-1-carboxamide]
[5]
  Temperature of transformation into Form A upon heating: above 190 °C
[9]
  Outcome of competitive slurry experiment with Form A: will convert into Form A

## O=C1CC2(CCN(C(=O)NCc3ccc(F)cc3)CC2)Nc2ccc(F)cc21 [amorphous, 6′-fluoro-N-(4-fluorobenzyl)-4′-oxo-3′,4′-dihydro-1′H-spiro[piperidine-4,2′-quinoline]-1-carboxamide]
[2]; [10]
  Chemical stability in the bulk: chemically stable
  Solid form change of bulk under stress: crystallized into the crystalline Modification A
[2]; 1 week 80° C., tight container
  Bulk (XRPD) solid form after stress: NX Mod A
  DP[%] degradation products, Bulk (HPLC): 0.7%
[2]; 1 week 80° C./75% RH
  Bulk (XRPD) solid form after stress: NX Mod A
  DP[%] degradation products, Bulk (HPLC): 0.7%
[3]; 1% in mixture 1 (Dry Blend), 2 weeks 50° C., tight container
  DP[%] degradation products: 0.8%
[3]; 1% in mixture 1 (Dry Blend), 2 weeks 50° C./75% RH
  DP[%] degradation products: 0.8%
[3]; 1% in mixture 2 (Wet granulation), 2 weeks 50° C., tight container
  DP[%] degradation products: 0.8%
[3]; 1% in mixture 2 (Wet granulation), 2 weeks 50° C./75% RH
  DP[%] degradation products: 0.8%
[3]; 1% in mixture 3 (Roller compaction), 2 weeks 50° C., tight container
  DP[%] degradation products: 0.8%
[3]; 1% in mixture 3 (Roller compaction), 2 weeks 50° C./75% RH
  DP[%] degradation products: 0.8%
[4]
  Bulk (XRPD) solid form after stress: No change
  DP[%] degradation products, Bulk (HPLC): 0.7%
  CL color: A
[4]; listed as amorphous form
  Increase in degradation products upon light stress: no degradation was observed

## O=C1CC2(CCN(C(=O)NCc3ccc(F)cc3)CC2)Nc2ccc(F)cc21 [compound of Formula (I), 6′-fluoro-N-(4-fluorobenzyl)-4′-oxo-3′,4′-dihydro-1′H-spiro[piperidine-4,2′-quinoline]-1-carboxamide]
[1]; 0.1% suspension/solution at high pH, 1 week at 80° C.
  Degradation: less than 1%
[1]; 0.1% suspension/solution in pH 1 buffer, 80° C., one week
  Degradation: about 5%

Reference: patent publication US20250353847A1, “CRYSTALLINE FORMS OF AN AKRIC3 DEPENDENT KARS INHIBITOR” (Novartis AG, priority 2022, published 2025)
